Values of other authors, collected in US20040220135A1 (priority 2003, published 2004).

Test system: liver metastases
Details: Gray et al (2001) Annals of Oncology 12: 1711-1720

In the case of `O=c1[nH]c(=O)n([C@H]2C[C@H](O)[C@@H](CO)O2)cc1F` [floxuridine], the Response rate is given as 17.6% and the “Time to disease progression” value is given as 9.7 months.
